Data reported in patent publication US10792335B2, “Rapid-acting insulin composition comprising a substituted citrate” (ADOCIA, priority 2015, dated 2020).
Peptide text beside a SMILES is read from it. * marks the point of attachment. Cbz = O=C(OCc1ccccc1)*

How the values were obtained:
[1] = Solubility in a buffer solution at 50 mM Tris/HCl pH 7.4 (visual inspection); format: physicochemical
Protocol: The solubility of the substituted citrates (A1, A2, A3 and A4) was measured in a buffer solution.
In a buffer solution at 50 mM of Tris/HCl, pH 7.4 (1 mL), the substituted citrate in powder form (20 mg) is introduced. The tubes are stirred (rolling shaker) for 30 minutes at ambient temperature, then inspected visually. The pH is adjusted to 7.4±0.4.
The solubility of the compounds of the prior art (CE1 and CE2) was measured.
4 mL of a buffer solution at 50 mM of Tris/HCl at pH 7.4 were introduced into a glass tube, at ambient temperature. The compounds in powder form were added successively in the amount of 8 mg per addition. After each addition of compound, the tubes were stirred (rolling shaker) for 30 minutes at ambient temperature, then inspected visually. The pH is adjusted to 7.4±0.4.
The concentrations at which insoluble matter was observed are defined as being greater than the limit of solubility of the compound.

[2] = Solubility in the presence of insulin lispro 100 IU/mL (commercial Humalog, visual inspection); format: physicochemical; conditions: commercial insulin lispro solution (Humalog) 100 IU/mL, aqueous with cosolvent or surfactant or cyclodextrin, thermodynamic from solid, pH 7.4±0.4, ambient temperature, 30 minutes stirring, read-out: Solubility (limit of solubility)
Protocol: The solubility of the substituted citrates (A1, A2, A3 and A4) is measured in the presence of insulin lispro 100 U/mL. In a commercial solution of insulin lispro (Humalog®) (1 mL), the substituted citrate in powder form (20 mg) is introduced. The tube was stirred (rolling shaker) for 30 minutes at ambient temperature, then inspected visually. The pH is adjusted to 7.4±0.4.
The solubility of the compounds of the prior art was also measured in the presence of insulin lispro 100 U/mL. 1 mL of a commercial solution of Humalog was introduced into a glass tube, at ambient temperature. The compounds in powder form were added successively in the amount of 2 mg per addition. After each addition of compound, the tubes were stirred (rolling shaker) for 30 minutes at ambient temperature, then inspected visually. The pH is adjusted to 7.4±0.4.
The concentrations at which insoluble matter was observed are defined as being greater than the limit of solubility of the compound in the presence of insulin lispro 100 IU/mL.

[3] = biological target: T1, hexameric R6 form of insulin lispro (Homo sapiens, UniProt P01308, K53P/P52K); experiment: Association state of the insulin lispro evaluated by circular dichroism (CD signal at 240 nm); format: physicochemical; conditions: insulin lispro 100 IU/mL (Humalog), pH 7.4; additive alone (EDTA 300 μM; substituted citrate 7.3 or 14.6 mg/mL)
T1 construct: The insulin lispro has a strong signal at 240 nm characteristic of the hexameric R6 form; purchased Lilly
T1 sequence (P01308 25-54 P52K/K53P limits assumed): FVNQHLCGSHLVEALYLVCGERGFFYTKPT
T1 sequence (P01308 90-110 limits assumed): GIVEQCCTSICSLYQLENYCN
Protocol: Circular dichroism makes it possible to study the secondary and quaternary structure of the insulin. The monomers of insulin self-organize to form dimers and hexamers. […] There are two hexameric forms, R6 form and T6 form. […] The loss of the signal at 240 nm is connected with a destabilization of the hexamer and the conversion from R6 to T6.
For a final volume of 100 mL of formulation, with a concentration of substituted citrate at 7.3 mg/mL and a concentration of 9.3 mM of citrate, the different reagents are added in the quantities specified below and in the following order:
For a final volume of 100 mL of formulation, with a concentration of substituted citrate at 7.3 mg/mL, the different reagents are added in the quantities specified below and in the following order:
For a final volume of 100 mL of formulation, with a concentration of 300 μM of EDTA, the different reagents are added in the quantities specified below and in the following order:
(§1) Two measurement series were carried out.
Circular dichroism makes it possible to study the secondary and quaternary structures of insulin. The monomers of insulin self-organize to form dimers and hexamers. […]
For a final volume of 100 mL of formulation, with a concentration of substituted citrate at 7.3 mg/mL or 14.6 mg/mL, the different reagents are added in the quantities specified below and in the following order: […]

[4] = biological target: T2, hexameric R6 form of human insulin (Homo sapiens, UniProt P01308); experiment: Association state of human insulin evaluated by circular dichroism (CD signal at 240 nm); format: physicochemical; conditions: human insulin 100 IU/mL (Humulin R), pH 7.4; additive alone (EDTA 300 μM or 6 mM; substituted citrate 7.3 or 14.6 mg/mL)
T2 construct: The human insulin has a strong signal at 240 nm, characteristic of the hexameric R6 form
T2 sequence (P01308 25-54 limits assumed): as the sequence (P01308 25-54 P52K/K53P limits assumed) above, with K28P, P29K counted along it
Protocol: Circular dichroism makes it possible to study the secondary and quaternary structures of insulin. The monomers of insulin self-organize to form dimers and hexamers. […] There are two hexameric forms, the R6 form and the T6 form. […] The loss of the signal at 240 nm is connected with a destabilization of the hexamer and the conversion from R6 to T6.
For a final volume of 100 mL of formulation, with a concentration of substituted citrate at 7.3 mg/mL and a concentration of 9.3 mM of citrate, the different reagents are added in quantities specified below and in the following order:
For a final volume of 100 mL of formulation, with a concentration of substituted citrate at 7.3 mg/mL or 14.6 mg/mL, the different reagents are added in the quantities specified below and in the following order:
For a final volume of 100 mL of formulation, with a concentration of 300 μM or 6 mM of EDTA, the different reagents are added in the quantities specified below and in the following order:
as §1

[5] = injected by the subcutaneous route, diabetic patients; cited from earlier work
[6] = 50 mM Tris/HCl buffer, aqueous buffer, thermodynamic from solid, buffer solution 50 mM Tris/HCl, pH 7.4, ambient temperature, 30 minutes stirring, read-out: Solubility (limit of solubility)
[7] = pH 7.4, thermodynamic from solid, medium not named at this place, sums up Tables 3 and 4 (Tris/HCl buffer and Humalog), read-out: limit of solubility (summary statement)

solubility at 30 min [1, 6] [µg/mL] | solubility at 30 min [1, 7] [µg/mL] | solubility at 30 min [2] [µg/mL] | impact on the CD signal at 240 nm / R6 form of the insulin lispro hexamer [3] | impact on the CD signal at 240 nm / R6 form of the human insulin hexamer [4] | Compound | time after which a hypoglycemic effect is produced [5] [min]
< 2000 | < 2000 | < 2000 |  |  | O=C(N[C@@H](Cc1ccccc1)C(=O)N[C@@H](Cc1ccccc1)C(=O)O)OCc1ccccc1 [CE1, N-Carbobenzoxy-L- phenylalanyl-L- phenylalanine] (Cbz-Phe-Phe-OH) | 
< 2000 | < 2000 | < 2000 |  |  | O=C(N[C@@H](Cc1ccccc1)C(=O)O)c1ccccc1 [CE2, Benzoyl-L- phenylalanine] | 
 |  |  | completely destructures the R6 form | completely destructures the R6 form | O=C(O)CN(CCN(CC(=O)O)CC(=O)O)CC(=O)O [EDTA] | 
 |  |  |  |  | human insulin: human insulin produced by genetic engineering, injected subcutaneously | 60
